Results published in ChEMBL document CHEMBL3885861, “Open TG-GATES”.

Species on record: Rattus norvegicus
Experiment: Open TG-GATES - Regimen: Single
Assay type: toxicity, organism-based, Sprague-Dawley
Set-up: regimen Single, gender Male, age 6 weeks
Settings: in vivo, po, 100 mg/kg, route gavage, dose level Middle; for APTT / Bas / Eos / Fbg / Hb / Ht / Lym / MCH / MCHC / MCV / Mono / Neu / PT / Plat / RBC / Ret / WBC: tissue Blood; for KIDNEY_L / KIDNEY_R / KIDNEY_TOTAL: tissue Kidney; for LIVER: tissue Liver; for A/G / ALP / ALT / AST / BUN / CRE / Ca / Cl / DBIL / GLC / IP / K / LDH / Na / PL / RALB / TBIL / TC / TG / TP / gamma-GTP: tissue Plasma

## ClC(Cl)(Cl)Cl [CARBON TETRACHLORIDE]
3 h
  TERMINAL_BW: 207.5 g
  APTT: 20.3 s
  Bas: 0%
  Eos: 1%
  Fbg: 222.4 mg/dL
  Hb: 12.7 g/dL
  Ht: 36.6%
  Lym: 76.4%
  MCH: 21.8 pg
  MCHC: 34.8%
  MCV: 62.7 fL
  Mono: 2.8%
  Neu: 19.8%
  PT: 12.6 s
  Plat: 129.7 x10_4/uL
  RBC: 583.2 x10_4/ul
  Ret: 8.7%
  WBC: 76.6 x10_2/uL
  KIDNEY_L: 0.9 g
  KIDNEY_R: 0.9 g
  KIDNEY_TOTAL: 1.8 g
  LIVER: 9.4 g
  A/G: 1.7
  ALP: 1077.4 IU/L
  ALT: 36.2 IU/L
  AST: 70 IU/L
  BUN: 10.2 mg/dL
  CRE: 0.4 mg/dL
  Ca: 10.8 mg/dL
  Cl: 104.6 meq/L
  DBIL: 0.1 mg/dL
  GLC: 186.4 mg/dL
  IP: 9.4 mg/dL
  K: 3.9 meq/L
  LDH: 156 IU/L
  Na: 140.2 meq/L
  PL: 148.6 mg/dL
  RALB: 3.4 g/dL
  TBIL: 0.2 mg/dL
  TC: 73.6 mg/dL
  TG: 103.8 mg/dL
  TP: 5.4 g/dL
  gamma-GTP: 1.2 IU/L
6 h
  TERMINAL_BW: 204.2 g
  APTT: 18 s
  Bas: 0%
  Eos: 1%
  Fbg: 224.8 mg/dL
  Hb: 13.3 g/dL
  Ht: 38.1%
  Lym: 71.2%
  MCH: 21.8 pg
  MCHC: 35%
  MCV: 62.4 fL
  Mono: 3%
  Neu: 24.8%
  PT: 12.7 s
  Plat: 134.8 x10_4/uL
  RBC: 611 x10_4/ul
  Ret: 8.8%
  WBC: 76 x10_2/uL
  KIDNEY_L: 0.9 g
  KIDNEY_R: 0.9 g
  KIDNEY_TOTAL: 1.8 g
  LIVER: 9 g
  A/G: 1.8
  ALP: 913.2 IU/L
  ALT: 35 IU/L
  AST: 65.6 IU/L
  BUN: 11.4 mg/dL
  CRE: 0.4 mg/dL
  Ca: 10.5 mg/dL
  Cl: 104 meq/L
  DBIL: 0.1 mg/dL
  GLC: 190.2 mg/dL
  IP: 10.2 mg/dL
  K: 3.9 meq/L
  LDH: 164.6 IU/L
  Na: 140.2 meq/L
  PL: 154.4 mg/dL
  RALB: 3.5 g/dL
  TBIL: 0.2 mg/dL
  TC: 78.8 mg/dL
  TG: 67.2 mg/dL
  TP: 5.4 g/dL
  gamma-GTP: 1.4 IU/L
9 h
  TERMINAL_BW: 205.2 g
  APTT: 18.5 s
  Bas: 0%
  Eos: 0.8%
  Fbg: 229.8 mg/dL
  Hb: 12.9 g/dL
  Ht: 37%
  Lym: 74.2%
  MCH: 21.2 pg
  MCHC: 34.8%
  MCV: 60.8 fL
  Mono: 3%
  Neu: 21.8%
  PT: 12.5 s
  Plat: 125.2 x10_4/uL
  RBC: 610.4 x10_4/ul
  Ret: 8%
  WBC: 72.7 x10_2/uL
  KIDNEY_L: 0.9 g
  KIDNEY_R: 0.9 g
  KIDNEY_TOTAL: 1.8 g
  LIVER: 8.4 g
  A/G: 1.6
  ALP: 848.2 IU/L
  ALT: 28.2 IU/L
  AST: 62.4 IU/L
  BUN: 11.4 mg/dL
  CRE: 0.4 mg/dL
  Ca: 10.5 mg/dL
  Cl: 103.6 meq/L
  DBIL: 0.1 mg/dL
  GLC: 196 mg/dL
  IP: 10.3 mg/dL
  K: 3.7 meq/L
  LDH: 173.2 IU/L
  Na: 140.4 meq/L
  PL: 141.2 mg/dL
  RALB: 3.3 g/dL
  TBIL: 0.2 mg/dL
  TC: 66.6 mg/dL
  TG: 65 mg/dL
  TP: 5.5 g/dL
  gamma-GTP: 0.8 IU/L
24 h
  TERMINAL_BW: 210.9 g
  APTT: 18.9 s
  Bas: 0%
  Eos: 1%
  Fbg: 229.8 mg/dL
  Hb: 13.6 g/dL
  Ht: 39.4%
  Lym: 79.4%
  MCH: 21.8 pg
  MCHC: 34.5%
  MCV: 63 fL
  Mono: 3.4%
  Neu: 15.8%
  PT: 12.6 s
  Plat: 126.7 x10_4/uL
  RBC: 625.2 x10_4/ul
  Ret: 8.6%
  WBC: 98.1 x10_2/uL
  KIDNEY_L: 0.9 g
  KIDNEY_R: 0.9 g
  KIDNEY_TOTAL: 1.8 g
  LIVER: 10.1 g
  A/G: 1.7
  ALP: 987 IU/L
  ALT: 38.2 IU/L
  AST: 70.2 IU/L
  BUN: 16.8 mg/dL
  CRE: 0.4 mg/dL
  Ca: 10.8 mg/dL
  Cl: 104.4 meq/L
  DBIL: 0.082 mg/dL
  GLC: 189.4 mg/dL
  IP: 8.1 mg/dL
  K: 4.1 meq/L
  LDH: 280 IU/L
  Na: 140.4 meq/L
  PL: 148.2 mg/dL
  RALB: 3.5 g/dL
  TBIL: 0.1 mg/dL
  TC: 70.4 mg/dL
  TG: 78 mg/dL
  TP: 5.6 g/dL
  gamma-GTP: 1 IU/L
